Measured values taken from patent US20080188530A1 (priority 2004, published 2008).
Like-named read-outs stand apart in the source and are kept apart here.

Key:
[1] = tested on: Pyrenophora [syn. Drechslera] teres; assay: Activity against net blotch of barley caused by Pyrenophora teres (protective spray on potted barley seedlings); assay type: in vivo; settings: barley cv. Igri, inoculated 5 days after spraying, rated after 6 days, efficacy in % of untreated control (Abbot)
Phytophthora infestans = assay type: in vivo; settings: tomato plants, infected 5 days after spraying, rated after 6 days, efficacy in % of untreated control (Abbot)

Row | SMILES | Observed efficacy (%) ([1]; 16 ppm) | Observed efficacy (%) (Phytophthora infestans; 16 ppm) | Observed efficacy (%) (Phytophthora infestans; 63 ppm) | Observed efficacy (%) ([1]; 63 ppm)
1 | COCC(=O)N(c1c(C)cccc1C)C(C)C(=O)OC (racemic) [metalaxyl, methyl N-(methoxyacetyl)-N-(2,6-xylyl)-DL-alaninate] | 0 |  |  | 
2 | O=C(Nc1ccccc1-c1ccc(Cl)cc1)c1cccnc1Cl [boscalid, 2-chloro-N-(4′-chlorobiphenyl-2-yl)nicotinamide] |  | 0 |  | 
3 | CO/C=C(/C(=O)OC)c1ccccc1CO/N=C(C)/C=C/c1ccc(Cl)cc1 [enestroburin, methyl 2-{2-[3-(4-chlorophenyl)-1-methylallylideneaminooxymethyl]phenyl}-3-methoxyacrylate] | 44 | 0 | 11 | 56
